{
  "source": "patent US20180078615A1",
  "about": "“USE OF CCL2 TO INHIBIT ABNORMAL UTERINE BLEEDING” (UNIVERSITY OF SOUTH FLORIDA, priority 2015, published 2018)",
  "key": {"[1]": {"tested_on": "VSMCs", "assay": "Whole genome microarray analysis (Illumina HumanHT-12 v4) of cultured VSMCs treated with progestins", "format": "cell-based, human", "details": "VSMCs treated by ETO", "from_the_text": "Cultured VSMCs (n=3) treated with control medium or medium containing medroxyprogesterone acetate (MPA, 10^−7 M), or etonogestrel (ETO, 10^−7 M) were processed for whole genome analyses using Illumina Human microarray kit. After qRT-PCR confirmation of several up and down regulated genes from microarray data, Ingenuity Pathway Analysis (IPA) determined relevant upstream signaling of LAPC altered gene expression. To investigate the role of genes and relevant signaling molecules identified by IPA, VSMCs (n=3) treated with MPA or ETO±1 or 10 ng/ml recombinant CCL2 (rCCL2)±STAT1 inhibitor, 5′-methyl-thioadenosine (MTA, 100 μM) were analyzed by BrdU incorporation proliferation, TUNEL based ELISA apoptosis and Transwell insert migration assays.\nVSMCs were thawed and cultured in medium 231 (M231; Life Technologies) with smooth muscle growth supplement (5% FBS; 2 ng/mL human basic fibroblast growth factor, 0.5 ng/mL human epidermal growth factor, 5 ng/mL heparin, 0.2 μg/mL insulin and 5 μg/mL BSA; Life Technologies) with 100 U/mL penicillin, 100 μg/mL streptomycin, 0.25 μg/mL fungizone. Confluent VSMCs were washed twice with 1×PBS to remove residual serum, passaged in 96-well or 6-well plates and incubated in parallel in M231 with 1% charcoal striped FBS with 0.1% ethanol (vehicle, control) or 10^−7 M MPA (Sigma-Aldrich) or 10^−7 M ETO (Organon) or 10^−7 M P4 (Sigma-Aldrich) for 15 min, 6, 48, and 72 h. VSMCs were then washed with ice-cold PBS and stored at −80° C. for further RNA and protein analyses.\nTotal RNA was isolated using Qiagen miRNeasy Mini Kit (Qiagen) and RNeasy MinElute Cleanup Kit (Qiagen). The quality of isolated RNAs was confirmed using an Agilent 2100 Bioanalyzer. Microarray analysis was limited to those specimens in which RNA Integrity Number exceeded 8. Microarray processes were performed in the Keck Biotechnology Resource Laboratory at Yale University (New Haven, Conn.) using Illumina Human HT-12 v4 BeadChip (Illumina). Raw data without normalization were analyzed by GeneSpring GX12.5 software (Agilent Technologies-Silicon Genetics). Normalization was performed as described (35). Genes with a fold-change >1.25 and a P value<0.05 were considered differentially expressed. Ingenuity Pathway Analysis (IPA) software (Qiagen) explored molecular and biological networks related to differentially expressed genes."}, "[2]": {"tested_on": "VSMCs", "assay": "Transwell insert migration assay", "format": "cell-based, human", "details": "12-h incubation, 10^−7 M; control 48.4%", "procedure": "VSMCs (75,000 cells/200 μL) were suspended in M231 containing 1% charcoal striped FBS and either 0.1% ethanol (vehicle control) or the corresponding steroids and seeded onto insert wells (transwell filter with 12-μm pores; EMD Millipore). The inserts were then placed in 24-well plates containing 500 μL M231 with 1% charcoal striped FBS. After 12 h, cells remaining on the upper surface of the filter were removed with a cotton swab. Migrated cells were trypsinized, centrifuged, and resuspended in 200 μL of M231 medium. The cell suspensions were mixed with 200 μL 10% ethanol containing 0.4% Trypan blue dye and the live cell number was counted by Countess Automated Cell Counter (Invitrogen). See further details in SI Materials and Methods.\nCultured VSMCs were grown in T-75 cell culture flasks in M231 (Life Technologies) with smooth muscle growth supplement (Life Technologies) with 100 U/mL penicillin, 100 μg/mL streptomycin, 0.25 μg/mL fungizone. Confluent VSMCs were washed twice with 1×PBS to remove residual serum, and then trypsinized, resuspended (75,000 cells per 200 μL per well) in M231 with 1% charcoal striped FBS with 0.1% ethanol (vehicle, control), 10^−7 M MPA (Sigma-Aldrich), 10^−7 M ETO (Organon), or 10^−7 M P4 (Sigma-Aldrich)±rCCL2 (R&D Systems) and seeded on insert wells (transwell filter with 12-μm pores; EMD Millipore), which were then placed in 24-well plates containing 500 μL M231 with 1% charcoal striped FBS. After 12 h, cells remaining on the upper surface of the filter were removed with a cotton swab. Migrated cells attached to the lower surface of each insert or to the surface of lower wells were collected by trypsinization, followed by centrifugation and resuspension in 200 μL of M231 medium. The cell suspensions were mixed with 200 μL 10% ethanol containing 0.4% Trypan blue dye (selectively stains only dead cells blue, whereas live cells with intact cell membranes remain unstained) for 5 min. A mixture of 100 μL M231 and 100 μL 10% ethanol containing 0.4% Trypan blue dye was used as a negative control. To detect live cell numbers, 10 μL of final cell/Trypan blue dye suspension from each treatment condition was pipetted into Countess Cell Counting Chamber Slide and counted by using Countess Automated Cell Counter (Invitrogen). The counting procedure was performed in duplicate."}},
  "data": [
    {"compound": "C#C[C@]1(O)CC[C@H]2[C@@H]3CCC4=CC(=O)CC[C@@H]4[C@H]3C(=C)C[C@@]21CC", "note": "[ETO, etonogestrel]", "values": [
      {"measurement": "Fold-change, ABI gene family, member 3 (NESH) binding protein (ABI3BP)", "setting": "[1]", "result": "−1.636"},
      {"measurement": "Fold-change, Actin, γ 2, smooth muscle, enteric (ACTG2)", "setting": "[1]", "result": 1.514},
      {"measurement": "Fold-change, Alcohol dehydrogenase 1A (class I), alpha polypeptide (ADH1A)", "setting": "[1]", "result": 1.54},
      {"measurement": "Fold-change, Bone morphogenetic protein 6 (BMP6)", "setting": "[1]", "result": 1.467},
      {"measurement": "Fold-change, Chemokine (C-C motif) ligand 2 (CCL2)", "setting": "[1]", "result": "−2.211"},
      {"measurement": "Fold-change, Claudin 11 (oligodendrocyte transmembrane protein) (CLDN11)", "setting": "[1]", "result": "−1.544"},
      {"measurement": "Fold-change, Collagen, type VIII, α 1, transcript variant 2 (COL8A1)", "setting": "[1]", "result": 1.44},
      {"measurement": "Fold-change, Complement factor B (CFB)", "setting": "[1]", "result": "−1.835"},
      {"measurement": "Fold-change, Cysteine-rich secretory protein LCCL domain containing 2, (CRISPLD2)", "setting": "[1]", "result": 1.661},
      {"measurement": "Fold-change, DNA-damage regulated autophagy modulator 1 (DRAM1)", "setting": "[1]", "result": "−1.535"},
      {"measurement": "Fold-change, Decorin, transcript variant A2, (DCN)", "setting": "[1]", "result": 1.762},
      {"measurement": "Fold-change, EF-hand domain family, member D1 (EFHD1)", "setting": "[1]", "result": 1.471},
      {"measurement": "Fold-change, Endoglin (Osler-Rendu-Weber syndrome 1) (ENG)", "setting": "[1]", "result": "−1.428"},
      {"measurement": "Fold-change, Filaggrin (FLG)", "setting": "[1]", "result": "−1.59"},
      {"measurement": "Fold-change, Growth arrest-specific 6 (GAS6)", "setting": "[1]", "result": 1.4661},
      {"measurement": "Fold-change, H19, imprinted maternally expressed transcript noncoding RNA (H19)", "setting": "[1]", "result": 2.497},
      {"measurement": "Fold-change, Hypothetical protein FLJ40504 (FLJ40504)", "setting": "[1]", "result": "−1.625"},
      {"measurement": "Fold-change, Indolethylamine N-methyltransferase (INMT)", "setting": "[1]", "result": 1.443},
      {"measurement": "Fold-change, Intelectin 2 (ITLN2)", "setting": "[1]", "result": 1.655},
      {"measurement": "Fold-change, LY6/PLAUR domain containing 1, transcript variant 1 (LYPD1)", "setting": "[1]", "result": "−1.447"},
      {"measurement": "Fold-change, Latexin (LXN)", "setting": "[1]", "result": "−1.779"},
      {"measurement": "Fold-change, Leptin (obesity homolog, mouse) (LEP)", "setting": "[1]", "result": 1.602},
      {"measurement": "Fold-change, Mitogen-activated protein kinase kinase 2 (MAP2K2)", "setting": "[1]", "result": "−1.437"},
      {"measurement": "Fold-change, PREDICTED: miscRNA (LOC399965)", "setting": "[1]", "result": "−1.534"},
      {"measurement": "Fold-change, PREDICTED: similar to LYPDC1 protein (LOC100134073)", "setting": "[1]", "result": "−1.536"},
      {"measurement": "Fold-change, PREDICTED: similar to filaggrin (LOC730833)", "setting": "[1]", "result": "−1.474"},
      {"measurement": "Fold-change, Pleckstrin homology-like domain, family A, member 1 (PHLDA1)", "setting": "[1]", "result": "−1.487"},
      {"measurement": "Fold-change, Potassium voltage-gated channel, shaker-related subfamily, 0 member 1, transcript variant2 (KCNAB1)", "setting": "[1]", "result": "−1.492"},
      {"measurement": "Fold-change, Prostaglandin-endoperoxide synthase 1, transcript variant 2 (PTGS1)", "setting": "[1]", "result": 1.555},
      {"measurement": "Fold-change, RAB11 family interacting protein 1 (class I), transcript variant 3, (RAB11FIP1)", "setting": "[1]", "result": 1.55},
      {"measurement": "Fold-change, Retinoic acid receptor responder (tazarotene induced) 1, transcript variant 1, (RARRES1)", "setting": "[1]", "result": "−2.146"},
      {"measurement": "Fold-change, Retinoic acid receptor responder (tazarotene induced) 1, transcript variant 2, (RARRES1)", "setting": "[1]", "result": "−1.809"},
      {"measurement": "Fold-change, Superoxide dismutase 2, mitochondrial, transcript variant 2, (SOD2)", "setting": "[1]", "result": "−1.778"},
      {"measurement": "Fold-change, Thioredoxin domain containing 5, transcript variant 2 (TXNDC5)", "setting": "[1]", "result": 1.429},
      {"measurement": "Fold-change, Transmembrane 4 L six family member 1 (TM4SF1)", "setting": "[1]", "result": "−1.467"},
      {"measurement": "Fold-change, Transmembrane protein 119 (TMEM119)", "setting": "[1]", "result": 1.448},
      {"measurement": "Fold-change, Wingless-type MMTV integration site family, member 5A (WNT5A)", "setting": "[1]", "result": 1.504},
      {"measurement": "Fold-change, cDNA FLJ20769 fis, clone COL06674 (PREDICTED: Receptor tyrosine kinase-like orphan receptor 1)", "setting": "[1]", "result": 1.528},
      {"measurement": "Fold-change, Matrix Gla protein (MGP)", "setting": "[1]; table entry 6", "result": 1.581},
      {"measurement": "Fold-change, Matrix Gla protein (MGP)", "setting": "[1]; table entry 8", "result": 1.554},
      {"measurement": "migration rate", "setting": "[2]", "result": 29.6, "unit": "%"}
    ]}
  ]
}
